These results are taken from patent publication US20140030712A1, “GENOMIC APPROACH TO THE IDENTIFICATION OF BIOMARKERS FOR ANTIBIOTIC RESISTANCE AND SUSCEPTIBILITY IN CLINICAL ISOLATES OF BACTERIAL PATHOGENS” (priority 2011, published 2014).

The structures appear in SMILES notation. ≈ marks a conversion by molar mass, not a printed value. Read-outs that look alike come from different tables or passages of the source.

In assay [1] the test system is E. coli clinical isolates. Briefly: microbe, parasite or virus in culture. The format is cell-based. To be noted: Escherichia coli. Here is the method:
Clinical isolate collection and antibiotic resistance determination. […] Hospital-derived qualitative antibiotic susceptibility status denoted each isolate as susceptible (S), intermediate resistant (I), or resistance (R) to the drugs listed in Table 1. Quantitative MICs for the fluoroquinolones ciprofloxacin (CIP), gatifloxacin (GAT), levofloxacin (LVX), and norfloxacin (NOR) were determined in our laboratory as described (LBB).

The test system of assay [2] is E. coli BW25113 K-12 strain. To be noted: deletion of any of three cryptic prophages (rac, e14, CP4-6); cited from earlier work.
Setting [3] is: pool H01, n=2 isolates, MDR ≧5, read-out: Fluoroquinolone MIC.
Setting [4] is: pool H02, n=5 isolates, MDR ≧3, read-out: Fluoroquinolone MIC.
[5] abbreviates: pool H03, n=5 isolates, MDR ≧3, read-out: Fluoroquinolone MIC.
[6] abbreviates: pool M01, n=10 isolates, MDR ≧3, read-out: Fluoroquinolone MIC.
Where [7] appears, read: pool M02, n=10 isolates, MDR ≧5, read-out: Fluoroquinolone MIC.
The mark [8] stands for this setting: pool M03, n=13 isolates, no MDR, read-out: Fluoroquinolone MIC.
Where [9] appears, read: pool M04, n=23 isolates, no MDR, read-out: Fluoroquinolone MIC.
Setting [10] is: pool M05, n=16 isolates, MDR ≧5, read-out: Fluoroquinolone MIC.
Where [11] appears, read: pool M06, n=13 isolates, MDR ≧3, read-out: Fluoroquinolone MIC.
Where [12] appears, read: pool M07, n=33 isolates, MDR ≧3, read-out: Fluoroquinolone MIC.
Setting [13] is: pool M08, n=3 isolates, No MDR, read-out: Fluoroquinolone MIC.
Where [14] appears, read: pool M09, n=3 isolates, MDR ≧3, read-out: Fluoroquinolone MIC.
Where [15] appears, read: pool M10, n=5 isolates, MDR ≧5, read-out: Fluoroquinolone MIC.
Where [16] appears, read: pool M11, n=5 isolates, MDR ≧3, read-out: Fluoroquinolone MIC.
Setting [17] is: pool S01, n=9 isolates, no MDR, read-out: Fluoroquinolone MIC.
Where [18] appears, read: pool S02, n=9 isolates, no MDR, read-out: Fluoroquinolone MIC.

For `COc1c(N2CCNC(C)C2)c(F)cc2c(=O)c(C(=O)O)cn(C3CC3)c12` (centres unmarked) [GAT, gatifloxacin], the MIC in assay [1] (setting [3]) was in the range of 10 to 30 µg/mL (≈ 26.6 to 79.9 µM); in assay [1] (setting [4]), 10 to 30 µg/mL (≈ 26.6 to 79.9 µM); in assay [1] (setting [5]) it was 50 to 200 µg/mL (≈ 133 to 533 µM); in assay [1] (setting [6]), 10 to 30 µg/mL (≈ 26.6 to 79.9 µM); in assay [1] (setting [7]) it was 10 to 30 µg/mL (≈ 26.6 to 79.9 µM); in assay [1] (setting [8]), 8 to 30 µg/mL (≈ 21.3 to 79.9 µM). Moreover, the MIC is 30 to 100 µg/mL (≈ 79.9 to 266 µM) in assay [1] (setting [9]); 10 to 20 µg/mL (≈ 26.6 to 53.3 µM) in assay [1] (setting [10]); 10 to 20 µg/mL (≈ 26.6 to 53.3 µM) in assay [1] (setting [11]); 10 µg/mL (≈ 26.6 µM) in assay [1] (setting [12]); 100 to 300 µg/mL (≈ 266 to 799 µM) in assay [1] (setting [13]); 20 µg/mL (≈ 53.3 µM) in assay [1] (setting [14]). For the same compound, the MIC was in the range of 20 to 100 µg/mL (≈ 53.3 to 266 µM) in assay [1] (setting [15]), 10 to 50 µg/mL (≈ 26.6 to 133 µM) in assay [1] (setting [16]), 0.01 to 0.02 µg/mL (≈ 0.0266 to 0.0533 µM) in assay [1] (setting [17]) and 0.01 to 0.09 µg/mL (≈ 0.0266 to 0.24 µM) in assay [1] (setting [18]).
In the case of `C[C@H]1COc2c(N3CCN(C)CC3)c(F)cc3c(=O)c(C(=O)O)cn1c23` [LVX, levofloxacin], the MIC in assay [1] (setting [3]) was 10 to 200 µg/mL (≈ 27.7 to 553 µM); in assay [1] (setting [4]) it was 40 to 50 µg/mL (≈ 111 to 138 µM); in assay [1] (setting [5]), 100 µg/mL (≈ 277 µM); in assay [1] (setting [6]) it was 20 to 50 µg/mL (≈ 55.3 to 138 µM); in assay [1] (setting [7]) it was 20 to 50 µg/mL (≈ 55.3 to 138 µM); in assay [1] (setting [8]) it was 8 to 30 µg/mL (≈ 22.1 to 83 µM). Moreover, the MIC in assay [1] (setting [9]) fell in the range of 50 to 100 µg/mL (≈ 138 to 277 µM); in assay [1] (setting [10]), 30 to 50 µg/mL (≈ 83 to 138 µM); in assay [1] (setting [11]), 30 to 100 µg/mL (≈ 83 to 277 µM); in assay [1] (setting [12]), 10 to 20 µg/mL (≈ 27.7 to 55.3 µM); in assay [1] (setting [13]), 50 to 200 µg/mL (≈ 138 to 553 µM); in assay [1] (setting [14]), 10 to 20 µg/mL (≈ 27.7 to 55.3 µM). Besides, the MIC is 30 to 100 µg/mL (≈ 83 to 277 µM) in assay [1] (setting [15]), 20 to 50 µg/mL (≈ 55.3 to 138 µM) in assay [1] (setting [16]), 0.02 to 0.07 µg/mL (≈ 0.0553 to 0.194 µM) in assay [1] (setting [17]) and 0.03 to 0.17 µg/mL (≈ 0.083 to 0.47 µM) in assay [1] (setting [18]).
Turning to `CCn1cc(C(=O)O)c(=O)c2cc(F)c(N3CCNCC3)cc21` [NOR, norfloxacin], the MIC in assay [1] (setting [3]) was 1000 µg/mL (≈ 3130 µM); in assay [1] (setting [4]) it was 400 to 1000 µg/mL (≈ 1250 to 3130 µM); in assay [1] (setting [5]) it was 400 to 1000 µg/mL (≈ 1250 to 3130 µM); in assay [1] (setting [6]) it was 200 to 700 µg/mL (≈ 626 to 2190 µM); in assay [1] (setting [7]) it was 200 to 700 µg/mL (≈ 626 to 2190 µM); in assay [1] (setting [8]) it was 50 to 200 µg/mL (≈ 157 to 626 µM). Besides, the MIC is 200 to 700 µg/mL (≈ 626 to 2190 µM) in assay [1] (setting [9]); 50 to 300 µg/mL (≈ 157 to 939 µM) in assay [1] (setting [10]); 200 to 400 µg/mL (≈ 626 to 1250 µM) in assay [1] (setting [11]); 50 to 200 µg/mL (≈ 157 to 626 µM) in assay [1] (setting [12]); 100 to 200 µg/mL (≈ 313 to 626 µM) in assay [1] (setting [13]); 100 to 200 µg/mL (≈ 313 to 626 µM) in assay [1] (setting [14]). In addition, the MIC in assay [1] (setting [15]) was 50 to 500 µg/mL (≈ 157 to 1570 µM); in assay [1] (setting [16]), 50 to 200 µg/mL (≈ 157 to 626 µM); in assay [1] (setting [17]), 0.03 to 0.09 µg/mL (≈ 0.0939 to 0.282 µM); in assay [1] (setting [18]), 0.04 to 0.34 µg/mL (≈ 0.125 to 1.06 µM); in assay [1] (pools denoted "H", read-out: norfloxacin MICs) it was above 1000 µg/mL.
As to `CCn1cc(C(=O)O)c(=O)c2ccc(C)nc21` [nalidixic acid], the “nalidixic acid MICs” value in assay [2] is listed as “lowered”.
